Assay results from patent US10118916B2, “Modulators of cystic fibrosis transmembrane conductance regulator protein” (AbbVie S.à.r.l., priority 2016, dated 2018).

Molecular target: T1, F508delCFTR (Homo sapiens, UniProt P13569, DEL508-508)
T1 construct: expressed in transfected cells; host or cells: CFBE41o- (human lung derived epithelial cell line), doxycycline-inducible
Assay: Cell Surface Expression-Horse Radish Peroxidase (CSE-HRP) assay
Type: cell-based
Details: CFBE41o-F508delCFTR-HRP cells; for EC50: F508delCFTR cell surface expression, luminescence, 18-24 hours at 33° C., highest concentration 20 μM; for Maximum % activity: maximum at any tested concentration, normalized to on-plate positive control (3 μM)
Text: Cell Surface Expression-Horse Radish Peroxidase (CSE-HRP) Assay:
A cellular assay for measuring the F508delCFTR cell surface expression after correction with test compounds was developed in human lung derived epithelial cell line (CFBE41o-) (Veit G et al, (2012) Mol Biol Cell. 23(21): 4188-4202). This was achieved by expressing the F508delCFTR mutation along with a horseradish peroxidase (HRP) in the fourth exofacial loop and then measuring the HRP activity using luminescence readout from these cells, CFBE41o-F508delCFTR-HRP, that were incubated overnight with the test corrector compounds. Briefly, for this primary assay, the CFBE41o-F508delCFTR-HRP cells were plated in 384-well plates (Greiner Bio-one; Cat 781080) at 4,000 cells/well along with 0.5 μg/mL doxycycline to induce the F508delCFTR-HRP expression and further incubated at 37° C., 5% CO2 for 72 hours. The test compounds were then added at the required concentrations and further incubated for 18-24 hours at 33° C. The highest concentration tested was 20 μM with an 8-point concentration response curve using a 3-fold dilution. Three replicate plates were run to determine one EC50. All plates contained negative controls (dimethyl sulfoxide, DMSO) and positive controls (3 μM of 3-[(2R,4R)-4-({[1-(2,2-difluoro-1,3-benzodioxol-5-yl)cyclopropyl]carbonyl}amino)-7-methoxy-3,4-dihydro-2H-chromen-2-yl]benzoic acid) as well as on-plate concentration response of the positive control. Post incubation, the plates were washed 5× times with Dulbecco's phosphate buffered saline (DPBS), followed by the addition of the HRP substrate, luminol (50 μL), and measuring the HRP activity using luminescence readout on EnVision® Multilabel Plate Reader (Perkin Elmer; product number 2104-0010). The raw counts from the experiment are analyzed using Accelrys® Assay Explorer v3.3.
Z′ greater than 0.5 was used as passing quality control criteria for the plates.
The Z′ is defined as: 1−[3*SDPositive Control+3*SDNegative Control/Absolute(MeanPositive Control−MeanNegative Control)] wherein “SD” is standard deviation.
The % activity measured at each of the 8 test concentrations of the test compound was normalized to the on-plate positive control using the following formula: % activity=[(test compound response−DMSO response)/(positive control response−DMSO response)]*100
The maximum % activity achieved for the test compound at any tested concentration is presented in Table 1 along with the EC50 calculated using the following general sigmoidal curve with variable Hill slope equation (described as Model 42 in the Accelrys® Assay Explorer v3.3 software): y=(a−d)/(1+(x/c)^b)+d
General sigmoidal curve with concentration, response, top, bottom, EC50 and Hill slope.
This model describes a sigmoidal curve with an adjustable baseline, a. The equation can be used to fit curves where response is either increasing or decreasing with respect to the independent variable, “x”. • “x” is a concentration of drug under test. • “y” is the response. • “a” is the maximum response, and “d” is the minimum response • “c” is the inflection point (EC50) for the curve. That is, “y” is halfway between the lower and upper asymptotes when x=c. • “b” is the slope-factor or Hill coefficient. The sign of b is positive when the response increases with increasing dose and is negative when the response decreases with increasing dose (inhibition).

T1 sequence (P13569 with tags, fused parts or gaps DEL508-508): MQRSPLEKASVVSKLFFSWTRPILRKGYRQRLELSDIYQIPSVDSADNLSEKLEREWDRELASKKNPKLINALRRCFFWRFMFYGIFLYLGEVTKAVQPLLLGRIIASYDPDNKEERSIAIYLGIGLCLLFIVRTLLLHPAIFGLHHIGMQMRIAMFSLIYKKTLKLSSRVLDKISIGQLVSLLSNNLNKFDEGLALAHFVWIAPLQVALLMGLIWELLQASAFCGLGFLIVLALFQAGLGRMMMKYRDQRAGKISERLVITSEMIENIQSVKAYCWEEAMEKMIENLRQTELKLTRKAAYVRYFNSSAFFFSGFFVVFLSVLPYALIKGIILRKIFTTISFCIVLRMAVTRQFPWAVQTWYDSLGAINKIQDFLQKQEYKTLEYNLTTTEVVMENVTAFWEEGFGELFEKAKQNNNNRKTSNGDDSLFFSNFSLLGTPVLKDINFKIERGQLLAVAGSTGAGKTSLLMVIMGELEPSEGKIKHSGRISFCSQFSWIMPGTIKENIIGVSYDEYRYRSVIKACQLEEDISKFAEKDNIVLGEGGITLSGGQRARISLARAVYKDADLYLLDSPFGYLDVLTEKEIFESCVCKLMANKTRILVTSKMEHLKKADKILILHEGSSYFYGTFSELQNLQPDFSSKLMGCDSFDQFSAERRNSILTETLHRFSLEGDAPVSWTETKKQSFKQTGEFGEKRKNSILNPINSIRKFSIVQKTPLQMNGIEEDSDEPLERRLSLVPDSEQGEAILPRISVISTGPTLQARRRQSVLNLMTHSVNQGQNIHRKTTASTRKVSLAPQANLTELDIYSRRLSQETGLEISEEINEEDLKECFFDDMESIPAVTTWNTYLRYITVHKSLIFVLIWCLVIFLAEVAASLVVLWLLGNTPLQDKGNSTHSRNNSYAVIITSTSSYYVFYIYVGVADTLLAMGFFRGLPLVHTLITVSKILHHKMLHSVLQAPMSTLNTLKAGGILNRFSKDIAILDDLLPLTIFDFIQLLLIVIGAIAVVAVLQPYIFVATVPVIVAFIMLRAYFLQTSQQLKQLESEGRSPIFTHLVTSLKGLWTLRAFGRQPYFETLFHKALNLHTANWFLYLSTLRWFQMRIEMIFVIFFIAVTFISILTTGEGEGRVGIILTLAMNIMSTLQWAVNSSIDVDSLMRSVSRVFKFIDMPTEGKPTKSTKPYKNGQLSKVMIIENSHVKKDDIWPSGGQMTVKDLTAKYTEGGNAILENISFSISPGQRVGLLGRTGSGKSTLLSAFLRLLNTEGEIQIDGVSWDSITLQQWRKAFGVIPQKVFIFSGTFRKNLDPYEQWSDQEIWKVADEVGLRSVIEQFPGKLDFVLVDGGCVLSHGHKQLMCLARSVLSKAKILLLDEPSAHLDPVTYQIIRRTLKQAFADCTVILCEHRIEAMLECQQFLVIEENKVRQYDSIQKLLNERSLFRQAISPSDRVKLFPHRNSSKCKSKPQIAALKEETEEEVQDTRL

| SMILES | EC50 | Maximum % activity |
| --- | --- | --- |
| COc1ccc2c(c1)O[C@@H](c1cccc(C(=O)O)c1)C[C@H]2NC(=O)C(C)(C)c1ccc(OC(F)(F)F)cc1 [Example 40, 3-[(2R,4R)-7-methoxy-4-{2-methyl-2-[4-(trifluoromethoxy)phenyl]propanamido}-3,4-dihydro-2H-1-benzopyran-2-yl]benzoic acid] | 1700 nM | 81.0% |
| COc1ccc2c(c1)O[C@@H](c1cccc(C(=O)O)c1)C[C@H]2NC(=O)C1(c2ccc(OC(F)(F)F)cc2)CC1 [Example 41, 3-[(2R,4R)-7-methoxy-4-({1-[4-(trifluoromethoxy)phenyl]cyclopropane-1-carbonyl}amino)-3,4-dihydro-2H-1-benzopyran-2-yl]benzoic acid] | 1670 nM | 62.2% |
| COc1ccc2c(c1)O[C@@H](c1cccc(C(=O)O)c1)C[C@H]2NC(=O)C1(c2ccc(Cl)cc2)CC1 [Example 42, 3-[(2R,4R)-4-{[1-(4-chlorophenyl)cyclopropane-1-carbonyl]amino}-7-methoxy-3,4-dihydro-2H-1-benzopyran-2-yl]benzoic acid] | 280 nM | 28.3% |
| COc1ccc2c(c1)O[C@@H](c1cccc(C(=O)O)c1)C[C@H]2NC(=O)C1(c2ccc(Br)cc2)CC1 [Example 43, 3-[(2R,4R)-4-{[1-(4-bromophenyl)cyclopropane-1-carbonyl]amino}-7-methoxy-3,4-dihydro-2H-1-benzopyran-2-yl]benzoic acid] | 280 nM | 39.1% |
| COc1ccc(C2(C(=O)N[C@@H]3C[C@H](c4cccc(C(=O)O)c4)Oc4cc(OC)ccc43)CC2)cc1 [Example 44, 3-[(2R,4R)-7-methoxy-4-{[1-(4-methoxyphenyl)cyclopropane-1-carbonyl]amino}-3,4-dihydro-2H-1-benzopyran-2-yl]benzoic acid] | 100 nM | 35.3% |
| COc1ccc2c(c1)O[C@@H](c1cccc(C(=O)O)c1)C[C@H]2NC(=O)C(C)(C)Oc1ccc(Cl)cc1 [Example 45, 3-{(2R,4R)-4-[2-(4-chlorophenoxy)-2-methylpropanamido]-7-methoxy-3,4-dihydro-2H-1-benzopyran-2-yl}benzoic acid] | > 20000 nM | 15.3% |
| COc1cccc2c1[C@@](C)(C(=O)N[C@@H]1C[C@H](c3cccc(C(=O)O)c3)Oc3ccccc31)CC2 [Example 46, 3-[(2R,4R)-4-{[(1S)-7-methoxy-1-methyl-2,3-dihydro-1H-indene-1-carbonyl]amino}-3,4-dihydro-2H-1-benzopyran-2-yl]benzoic acid] | > 20000 nM | 1.1% |
| COc1ccc2c(c1)[C@@](C)(C(=O)N[C@@H]1C[C@H](c3cccc(C(=O)O)c3)Oc3ccccc31)CC2 [Example 47, 3-[(2R,4R)-4-{[(1S)-6-methoxy-1-methyl-2,3-dihydro-1H-indene-1-carbonyl]amino}-3,4-dihydro-2H-1-benzopyran-2-yl]benzoic acid] | 1060 nM | 38.2% |
| COc1ccc2c(c1)[C@](C)(C(=O)N[C@@H]1C[C@H](c3cccc(C(=O)O)c3)Oc3ccccc31)CC2 [Example 48, 3-[(2R,4R)-4-{[(1R)-6-methoxy-1-methyl-2,3-dihydro-1H-indene-1-carbonyl]amino}-3,4-dihydro-2H-1-benzopyran-2-yl]benzoic acid] | > 20000 nM | 4.5% |
| Cc1ccccc1C(C)(C)C(=O)N[C@@H]1C[C@H](c2cccc(C(=O)O)c2)Oc2ccccc21 [Example 49, 3-{(2R,4R)-4-[2-methyl-2-(2-methylphenyl)propanamido]-3,4-dihydro-2H-1-benzopyran-2-yl}benzoic acid] | > 20000 nM | 3.5% |
| COc1cccc2c1[C@](C)(C(=O)N[C@@H]1C[C@H](c3cccc(C(=O)O)c3)Oc3ccccc31)CC2 [Example 50, 3-[(2R,4R)-4-{[(1R)-7-methoxy-1-methyl-2,3-dihydro-1H-indene-1-carbonyl]amino}-3,4-dihydro-2H-1-benzopyran-2-yl]benzoic acid] | > 20000 nM | 4.9% |
| CC(C)(C(=O)N[C@@H]1C[C@H](c2cccc(C(=O)O)c2)Oc2ccccc21)c1ccc(C(F)(F)F)cc1 [Example 51, 3-[(2R,4R)-4-{2-methyl-2-[4-(trifluoromethyl)phenyl]propanamido}-3,4-dihydro-2H-1-benzopyran-2-yl]benzoic acid] | 2030 nM | 57.9% |
| CC(C)(C(=O)N[C@@H]1C[C@H](c2cccc(C(=O)O)c2)Oc2ccccc21)c1ccc(Cl)cc1Cl [Example 52, 3-{(2R,4R)-4-[2-(2,4-dichlorophenyl)-2-methylpropanamido]-3,4-dihydro-2H-1-benzopyran-2-yl}benzoic acid] | > 20000 nM | 1.8% |
| C[C@@]1(C(=O)N[C@@H]2C[C@H](c3cccc(C(=O)O)c3)Oc3ccccc32)CCc2ccc(Cl)cc21 [Example 53, 3-[(2R,4R)-4-{[(1R)-6-chloro-1-methyl-2,3-dihydro-1H-indene-1-carbonyl]amino}-3,4-dihydro-2H-1-benzopyran-2-yl]benzoic acid] | > 20000 nM | 1.2% |
| C[C@]1(C(=O)N[C@@H]2C[C@H](c3cccc(C(=O)O)c3)Oc3ccccc32)CCc2ccc(Cl)cc21 [Example 54, 3-[(2R,4R)-4-{[(1S)-6-chloro-1-methyl-2,3-dihydro-1H-indene-1-carbonyl]amino}-3,4-dihydro-2H-1-benzopyran-2-yl]benzoic acid] | > 20000 nM | 10.4% |
| CC1(C(=O)N[C@@H]2C[C@H](c3cccc(C(=O)O)c3)Oc3ccccc32)CCc2cc(OC(F)(F)F)ccc21 (stereo partly drawn) [Example 55, 3-[(2R,4R)-4-{[1-methyl-5-(trifluoromethoxy)-2,3-dihydro-1H-indene-1-carbonyl]amino}-3,4-dihydro-2H-1-benzopyran-2-yl]benzoic acid] | 2710 nM | 49.9% |
| COc1ccc2c(c1)OCC2(C)C(=O)N[C@@H]1C[C@H](c2cccc(C(=O)O)c2)Oc2ccccc21 (stereo partly drawn) [Example 56, 3-{(2R,4R)-4-[(6-methoxy-3-methyl-2,3-dihydro-1-benzofuran-3-carbonyl)amino]-3,4-dihydro-2H-1-benzopyran-2-yl}benzoic acid] | 1300 nM | 71.4% |
| COC(=O)c1cccc([C@H]2C[C@@H](NC(=O)C3(C)CCc4ccc(OC(F)(F)F)cc43)c3ccc(OC)cc3O2)c1 (stereo partly drawn) [Example 57, methyl 3-[(2R,4R)-7-methoxy-4-{[1-methyl-6-(trifluoromethoxy)-2,3-dihydro-1H-indene-1-carbonyl]amino}-3,4-dihydro-2H-1-benzopyran-2-yl]benzoate] | > 20000 nM | 2.3% |
| COc1ccc2c(c1)O[C@@H](c1cccc(C(=O)O)c1)C[C@H]2NC(=O)C1(C)CCc2ccc(OC(F)(F)F)cc21 (stereo partly drawn) [Example 58, 3-[(2R,4R)-7-methoxy-4-{[1-methyl-6-(trifluoromethoxy)-2,3-dihydro-1H-indene-1-carbonyl]amino}-3,4-dihydro-2H-1-benzopyran-2-yl]benzoic acid] | 2220 nM | 20.4% |
| COC(=O)c1ccc([C@H]2C[C@@H](NC(=O)[C@@]3(C)CCc4cc(Cl)ccc4O3)c3ccccc3O2)cc1 [Example 59, methyl 4-[(2R,4R)-4-{[(2R)-6-chloro-2-methyl-3,4-dihydro-2H-1-benzopyran-2-carbonyl]amino}-3,4-dihydro-2H-1-benzopyran-2-yl]benzoate] | > 20000 nM | 1.8% |
| C[C@]1(C(=O)N[C@@H]2C[C@H](c3ccc(C(=O)O)cc3)Oc3ccccc32)CCc2cc(Cl)ccc2O1 [Example 60, 4-[(2R,4R)-4-{[(2R)-6-chloro-2-methyl-3,4-dihydro-2H-1-benzopyran-2-carbonyl]amino}-3,4-dihydro-2H-1-benzopyran-2-yl]benzoic acid] | > 20000 nM | 2.3% |
